Results from patent US12703836B2, “Mixture of compounds with high molecular weights, obtained from sugar cane wax (Saccharum officinarum L.)” (CENTRO NACIONAL DE INVESTIGACIONES CIENTÍFICAS, priority 2021, dated 2026).

Columns and labels:
[1] = test system: plasma sulfhydryl (SH) groups; assay: Plasma protein oxidation (sulfhydryl groups) after cerebral ischemia/reperfusion; format: in vivo, Mongolian gerbils; conditions: gerbils, plasma after I/R; oral HMWS 200, AcGS 132, AlcG 40, AldG 28, AcGL 200, ASA 60 mg/kg
Text: For the evaluation of the neuroprotective effect of the mixture of high molecular weight substances, the object of the present invention, an experimental model of global cerebral ischemia by occlusion and reperfusion of the carotid arteries was used. The composition of High Molecular Weight Substances (HMWS) obtained in example 1 was subjected to a preclinical test with animals, in which its pharmacological effect was compared with the effects of pure extracts of Fatty Acids in the form of Salts (AcGS), fatty alcohols (AlcG) and high molecular weight aldehydes (AldG), which were administered in the dose equivalent to the proportion in which each one is present in 200 mg/kg of the HMWS Active Ingredient. Furthermore, the effect of HMWS was compared with the effect of pure free fatty acid (AcGL) extract administered at equal doses. […] To determine lipid peroxidation, the formation of substances reactive to thiobarbituric acid (SRATB) was quantified (according to Ohkawa et al., 1979) in plasma, and was expressed as nmol malondialdehyde (MDA)/mg of protein. To determine protein oxidation, sulfhydryl (SH) groups were determined (technique described by Miao-Lin Hu, 1994). […] The absorbance of the supernatant was read at 412 nm. […] The protein concentration was determined by the modified Lowry method ([…], 1987).

[2] = test system: pyramidal cells of the CA1 area of the hippocampus; assay: Histological score of brain damage after ischemia/reperfusion; format: in vivo, Mongolian gerbils; conditions: gerbils, oral HMWS 200, AcGS 132, AlcG 40, AldG 28, AcGL 200, ASA 60 mg/kg
Text: For the evaluation of the neuroprotective effect of the mixture of high molecular weight substances, the object of the present invention, an experimental model of global cerebral ischemia by occlusion and reperfusion of the carotid arteries was used. The composition of High Molecular Weight Substances (HMWS) obtained in example 1 was subjected to a preclinical test with animals, in which its pharmacological effect was compared with the effects of pure extracts of Fatty Acids in the form of Salts (AcGS), fatty alcohols (AlcG) and high molecular weight aldehydes (AldG), which were administered in the dose equivalent to the proportion in which each one is present in 200 mg/kg of the HMWS Active Ingredient. Furthermore, the effect of HMWS was compared with the effect of pure free fatty acid (AcGL) extract administered at equal doses. Once the quarantine was over, the gerbils were distributed into 8 groups: a negative control that only received vehicle and cerebral ischemia (CI) was not induced and 7 groups with induced CI. […] All treatments were administered orally through intragastric intubation (0.5 mL/70 g body weight) 1 hour prior to induction of ischemia. […] Sections from each brain were evaluated by a light microscopy scoring system for determination of damage to the pyramidal cells of the CA1 area of the hippocampus with bilateral averages. […]

With CC(=O)Oc1ccccc1C(=O)O [ASA, aspirin] the “Inhibition (%) of SH groups increase” value [1] was 12%, the “Histologic Score (brain, CA1, scale 0-4)” value ([2]; 24 hours reperfusion, mean ± SEM, positive control 2.96 ± 0.07) was 2.00 ± 0.15 and the “Inhibition (%) of histological score of brain damage” value ([2]; I/R) was 32.4%.
